Values quoted from earlier work in patent US4944949A, “Pharmaceutical delivery systems” (priority 1986, dated 1990).
Where two headings read alike, the source gives them in different places.

How the values were obtained:
[1] = for most frequent adverse effects: in vivo
[2] = in vivo
[3] = for faecal blood loss with oral prostaglandin E2: oral PGE2 1 mg three or four times daily given with the drug
[4] = parts of drug dissolving in 10,000 parts of water

| Compound | most frequent adverse effects [1] | solubility in organic solvents | absorption [2] | other results |
| --- | --- | --- | --- | --- |
| COc1ccc2cc([C@H](C)C(=O)O)ccc2c1 [Naproxen] | gastrointestinal | – | – | – |
| O=C(O)c1ccccc1Nc1cccc(C(F)(F)F)c1 [Flufenamic acid] | gastrointestinal disturbances | reasonably soluble in various organic solvents | well absorbed | solubility in water [4]: less than 1 part in 10,000 parts of water; bound to plasma proteins (plasma proteins): extensively bound to plasma proteins |
| CN1C(C(=O)Nc2ccccn2)=C(O)c2ccccc2S1(=O)=O [Piroxicam] | high incidence of severe gastrointestinal side effects | soluble in some organic solvents | well absorbed | solubility in water (water): poorly soluble in water; bound to plasma proteins (plasma proteins; plasma): 99% |
| CC(C(=O)O)c1ccc(-c2ccccc2)c(F)c1 (centres unmarked) [Flurbiprofen] | – | readily soluble in most organic solvents | readily absorbed | bound to plasma proteins (plasma proteins; plasma): approximately 99% |
| CC1=C(CC(=O)O)c2cc(F)ccc2/C1=C\c1ccc([S+](C)[O-])cc1 (centres unmarked) [Sulindac] | gastrointestinal, headache and dizziness | – | incompletely absorbed from the gastrointestinal tract | – |
| CC(=O)Oc1ccccc1C(=O)O [Aspirin] | – | – | – | faecal blood loss with oral prostaglandin E2 [3]: reduced to control levels |
| CCCCC1C(=O)N(c2ccccc2)N(c2ccccc2)C1=O [Phenylbutazone] | nausea, vomiting and epigastric distress | – | readily absorbed | – |
| CC(C)Cc1ccc(C(C)C(=O)O)cc1 (centres unmarked) [Ibuprofen, ibuprofen] | gastrointestinal | fairly soluble in simple organic solvents | well absorbed | solubility in water [4]: less than 1 part in 10,000 parts of water; solubility in water (water): poorly soluble in water |
| CC(C(=O)O)c1cccc(C(=O)c2ccccc2)c1 (centres unmarked) [Ketoprofen] | gastrointestinal | – | – | – |
| O=C(O)Cc1ccccc1Nc1c(Cl)cccc1Cl [Diclofenac] | – | soluble in some organic solvents | fairly well absorbed | Gastrointestinal disturbances / side effects reported ([1]; % of cases): about 7%; solubility in water (water): poorly soluble in water |
| COc1ccc2c(c1)c(CC(=O)O)c(C)n2C(=O)c1ccc(Cl)cc1 [Indomethacin] | gastrointestinal problems, headache and dizziness | more soluble in simple organic solvents | readily absorbed | increase in faecal blood loss ([3]; compared with controls): ~3 fold; faecal blood loss with oral prostaglandin E2 [3]: reduced to control levels; parts of water in which drug is soluble (parts of water per part of drug): more than 10,000 parts of water |
